# In patent US20070004767A1, “Methods for treating neurofibromatosis 1” (priority 2005, published 2007):
# Key:
# [1] = biological target: FKBP-rapamycin binding domain (FRB) of mammalian target of rapamycin (mTOR) (Homo sapiens, UniProt P42345+P62942); conditions: cited from earlier work
# [2] = biological target: 12 kDa FK506 binding protein (FKBP12) (Homo sapiens, UniProt P62942); conditions: cited from earlier work
# [3] = tested on: ribosomal S6 protein phosphorylation in wild-type (Nf1+/+) astrocytes; assay: S6 phosphorylation (phospho-S6 Ser240/244 Western blot) in wild-type astrocytes; format: cell-based, mouse; conditions: for S6 phosphorylation: wild-type astrocytes
# Experimental: (§1) Western blot analysis was performed as described previously in, for example, Dasgupta B et al., The Neurofibromatosis 1 Gene Product Neurofibromin Regulates Pituitary Adenylate Cyclase-Activating Polypeptide-Mediated Signaling in Astrocytes, J. NEUROSCI. 23:8949-8954 (2003). The following antibodies were used: anti-NF1GRP, nucleolin, and cyclin D1 (Santa Cruz Biotechnology, Santa Cruz, Calif.), phospho-S6 (Serine-240/244; Cell Signaling Technology, Beverley, Mass.), α-tubulin and fibrillarin (Sigma, St. Louis, Mo.), anti-T7 (Novagen, Madison, Wis.), anti-KT3 (Babco, Richmond, Calif.), NPM (Zymed, San Francisco, Calif.), and L7 (Novus Biologicals, Littleton, Colo.).
# (§2) One of the downstream targets of activated RAS is P13-Kinase. See Rodriguez-Viciana P, et al., Phosphatidylinositol-3-OH Kinase as a Direct Target of Ras, NATURE 370:527-532 (1994). In this regard, loss of neurofibromin expression is associated with activation of the PI3K-AKT signaling pathway in human NF1-associated pilocytic astrocytoma and in Nf1−/− mouse myeloid cells. See Lau N, et al., Loss of Neurofibromin is Associated with Activation of Ras/MAPK and PI3K/AKT Signalling in a Neurofibromatosis 1 Astrocytoma, J NEUROPATHOL. EXP. NEUROL. 59:759-767 (2000); and Donovan S, et al., Hyperactivation of Protein Kinase B and Erk Have Discrete Effects on Survival, Proliferation, and Cytokine Expression in Nf1-Deficient Myeloid Cells, CANCER CELL 2:507-514 (2002). Several studies have shown that activation of the PI3K-AKT leads to activation of the mammalian target of rapamycin (mTOR), which leads to phosphorylation of S6 kinase and activation of ribosomal S6. See Chung J, et al., PDGF- and Insulin-Dependent pp70S6k Activation Mediated by Phosphatidylinositol-3-OH Kinase, NATURE 370:71-75 (1994); and Gingras A C, et al., Regulation of Translation Initiation by FRAP/mTOR, GENES DEV. […] To determine whether S6 hyperactivation in Nf1−/− astrocytes is downstream of PI3K and mTOR, S6 phosphorylation in both Nf1+/+ and Nf1−/− astrocytes in presence of a PI3K inhibitor (LY294002) and an mTOR inhibitor (rapamycin) was measured. […]
# wild-type astrocytes = assay: Astrocyte proliferation by 3[H]-thymidine incorporation, wild-type astrocytes
# Experimental: (§3) Murine neocortical astroglial cultures, containing >95% GFAP positive cells (astrocytes), were generated from postnatal day 2 Nf1^flox/flox and (LSL)-K-RAS^G12D; GFAPCre transgenic pups as previously described. […] Astrocyte proliferation assays were performed by ^3[H]-thymidine incorporation.
# (§4) To determine whether the growth advantage of Nf1-deficient astrocytes reflected increased mTOR signaling, Nf1−/− astrocyte proliferation after rapamycin treatment was measured.
# [4] = tested on: ribosomal S6 protein phosphorylation in Nf1−/− astrocytes; assay: S6 phosphorylation (phospho-S6 Ser240/244 Western blot) in Nf1−/− astrocytes; format: cell-based, mouse
# Experimental: as §1, §2
# Nf1−/− astrocytes = assay: Astrocyte proliferation by 3[H]-thymidine incorporation, Nf1−/− astrocytes
# Experimental: as §3, §4
# astrocytes = conditions: mouse, 1 μM
# Experimental: as §4
# [5] = control astrocytes, FIG. 6 legend
# Chain of FKBP-rapamycin binding domain (FRB) of mammalian target of rapamycin (mTOR) (P42345 2015-2114, species assumed): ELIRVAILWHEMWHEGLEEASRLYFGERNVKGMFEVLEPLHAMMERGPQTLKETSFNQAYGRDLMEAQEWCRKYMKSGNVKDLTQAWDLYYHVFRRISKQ
# Chain of FKBP-rapamycin binding domain (FRB) of mammalian target of rapamycin (mTOR) (P62942 2-108, species assumed): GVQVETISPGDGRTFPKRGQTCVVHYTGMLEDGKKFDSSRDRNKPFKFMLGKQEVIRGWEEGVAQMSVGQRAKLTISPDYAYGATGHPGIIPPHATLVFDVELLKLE
# Chain of 12 kDa FK506 binding protein (FKBP12) (P62942 whole entry, species assumed): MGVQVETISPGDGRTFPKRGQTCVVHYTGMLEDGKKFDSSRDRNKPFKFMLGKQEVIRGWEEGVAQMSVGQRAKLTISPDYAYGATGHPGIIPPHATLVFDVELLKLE
compound,measurement,setting,value
"CO[C@H]1C[C@@H]2CC[C@@H](C)[C@@](O)(O2)C(=O)C(=O)N2CCCC[C@H]2C(=O)O[C@H]([C@H](C)C[C@@H]2CC[C@@H](O)[C@H](OC)C2)CC(=O)[C@H](C)/C=C(\C)[C@@H](O)[C@@H](OC)C(=O)[C@H](C)C[C@H](C)/C=C/C=C/C=C/1C [rapamycin, Rapamycin]",binding affinity to FRB domain (E2015 to Q2114) of mTOR,[1],high affinity
same,binding affinity to FKBP12,[2],high affinity
same,effect on ribosomal S6 protein phosphorylation in control astrocytes,[3]; [5],little or no effect
same,S6 phosphorylation,"[3]; 1 μM, FIG. 6 inset",no effect
same,S6 phosphorylation,"[3]; 5 μM, FIG. 2C",completely inhibited
same,effect on cell proliferation (growth) in control astrocytes,wild-type astrocytes; [5],little or no effect
same,reduction of basal proliferation,"wild-type astrocytes; wild-type astrocytes, 1 μM",16±4%
same,S6 phosphorylation,"[4]; 1 μM, FIG. 6 inset",significantly inhibited
same,S6 phosphorylation,"[4]; 5 μM, FIG. 2C",completely inhibited
same,"inhibition of ribosomal S6 protein phosphorylation, dose dependence",[4]; FIG. 6 legend,dose-dependent inhibition
same,reduction of proliferation,Nf1−/− astrocytes; 1 μM,55±9.5%
same,"inhibition of cell proliferation (growth), dose dependence",Nf1−/− astrocytes; FIG. 6 legend,dose-dependent inhibition
same,cell survival (Trypan blue exclusion),astrocytes,greater than 98%
